1 compound from ChEMBL document CHEMBL5727017, “N-arylmethyl sulfonamide negative modulators of NR2A” (2018) can be followed below.

This assay is described as follows: Biological Assay: Cell Culture and plating: HEK293 cells expressing NR1/NR2A (Chantest, Cleveland, Ohio) were grown to 70-80% confluency as an adherent monolayer in standard tissue culture flasks at 37° C., 5% CO2 per supplier's instructions. NR2A expression was induced by incubation with 0.3-0.4 μg/ml tetracycline in the presence of 4 mM ARL-15896 for 18-24 hours under the same growth conditions, then transferred to 30° C. for another 3-5 hours.After induction, cell culture medium was removed and cells were rinsed once with Ca2+ and Mg2+-free Dulbecco's phosphate buffered saline. Cells were then removed from the flask using TrypLE Express (Life Technologies) according to the manufacturer's instructions and collected to 50 ml centrifuge tubes. Following two washes in Ca2+/Mg2+-free HBSS with 20 mM HEPES (HHnoCa), cells were counted and viability assessed using trypan blue. To load cells with Ca2+-sensitive dye, they were resuspended in fluo-8 plus Component B (AAT Bioquest Products) diluted in HHnoCa and incubated 15 minutes at 37° C., followed by 30 minutes at room temp (in dark). Cells were then washed and resuspended in HHnoCa to remove extracellular dye and plated in 384-well plates (Falcon, uncoated) at 20,000-30,000 cells/well in a final volume of 25 μL/well.

Regarding `Cc1ncc(CNC(=O)c2ccc(CNS(=O)(=O)c3c(C)noc3C)cn2)s1`, the IC50 (commonly the concentration at which inhibition is half-maximal) was determined as 10 µM.
